Source: patent US9745328B2, “Flap modulators” (JANSSEN PHARMACEUTICA NV, priority 2013, dated 2017)

target: human FLAP (Homo sapiens (Human), UniProt P20292); assay: FLAP binding assay (HTRF format); conditions: Table 6 (additional runs), human FLAP wild type
Description: The ability of the compounds of the present invention to treat a FLAP-mediated disease and/or disorder, or associated symptoms or complications thereof, was determined using the following procedures. Binding assay data represent the average value obtained from two different assay plates, with samples run in duplicate on each plate. Human whole blood assay data represent a single replicate on an assay plate using whole blood from at least one healthy donor.
Data are expressed as a HTRF ratio.

human FLAP, sequence (P20292 whole entry): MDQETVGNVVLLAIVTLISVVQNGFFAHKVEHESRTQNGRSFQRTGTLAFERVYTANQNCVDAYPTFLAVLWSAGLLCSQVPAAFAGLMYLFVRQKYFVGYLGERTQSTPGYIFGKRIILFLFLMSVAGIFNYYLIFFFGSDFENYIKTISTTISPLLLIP

`Nc1cnc(-c2ccc(-c3ccccc3S(=O)(=O)N[C@H]3CCCNC3=O)cc2F)cn1` [Example 108, (S)-4′-(5-aminopyrazin-2-yl)-3′-fluoro-N-(2-oxopiperidin-3-yl)-[1,1′-biphenyl]-2-sulfonamide] was tested. Which Ki did it give?
Its Ki is 9.5 nM.

For `CC(C)[C@H](CO)NS(=O)(=O)c1ccccc1-c1ccc(-c2cnc(N)cn2)c(F)c1` [Example 109], which Ki is on record?
The Ki was 1.5 nM.

How did the Ki turn out when `Nc1cnc(-c2ccc(-c3ccccc3S(=O)(=O)N[C@H]3CC[C@H](O)CC3)cc2F)cn1` [Example 110, trans 4′-(5-Aminopyrazin-2-yl)-3′-fluoro-N-(4-hydroxycyclohexyl)biphenyl-2-sulfonamide] was run?
The Ki was 2.6 nM.

Which Ki does the source give for `Nc1cnc(-c2ccc(-c3ccccc3S(=O)(=O)N[C@H](CO)Cc3ccccc3)cc2F)cn1` [Example 116, (3),4-(5-aminopyrazin-2-yl)-3′-fluoro-N-(1-hydroxy-3-phenylpropan-2-yl)-[1,1′-biphenyl]-2-sulfonamide] here?
Its Ki is 0.7 nM.

Which Ki does the source give for `C[C@@H]([C@@H](O)c1ccccc1)N(C)S(=O)(=O)c1ccccc1-c1ccc(-c2cnc(N)cn2)c(F)c1` [Example 118, 4′-(5-aminopyrazin-2-yl)-3′-fluoro-N-((1S,2S)-1-hydroxy-1-phenylpropan-2-yl)-N-methyl-[1,1′-biphenyl)-2-sulfonamide] here?
The Ki was 0.4 nM.

`Nc1cnc(-c2ccc(-c3ccccc3S(=O)(=O)N3CC(O)C3)cc2F)cn1` [Example 119, 1-{[4′-(5-Aminopyrazin-2-yl)-3′-fluorobiphenyl-2-yl]sulfonyl}azetidin-3-ol] was tested. Which Ki did it give?
The Ki was 2.7 nM.

With `CN[C@@H]1CCN(S(=O)(=O)c2ccccc2-c2ccc(-c3cnc(N)cn3)c(F)c2)C1` [Example 126, (R)-5-(3-Fluoro-2′-{[3-(methylamino)pyrrolidin-1-yl]sulfonyl}biphenyl-4-yl)pyrazin-2-amine] as the compound, how does the Ki read?
Its Ki is 141 nM.

How did the Ki turn out when `Nc1cnc(-c2ccc(-c3ccccc3S(=O)(=O)N3CCc4[nH]ncc4C3)cc2F)cn1` [Example 128, 5-[3-Fluoro-2′-(1,4,6,7-tetrahydro-5H-pyrazolo[4,3-c]pyridin-5-ylsulfonyl)biphenyl-4-yl]pyrazin-2-amine] was run?
Its Ki is 0.8 nM.

With `Nc1cnc(-c2ccc(-c3ccccc3S(=O)(=O)NCCCCCO)cc2F)cn1` [Example 132, 4′-(5-Aminopyrazin-2-yl)-3′-fluoro-N-(5-hydroxypentyl)biphenyl-2-sulfonamide] as the compound, how does the Ki read?
The Ki was 2.4 nM.

With `Nc1cnc(-c2ccc(-c3ccccc3S(=O)(=O)N[C@H]3CC[C@@H](N)CC3)cc2F)cn1` [Example 134, N-(4-Aminocyclohexyl)-4′-(5-aminopyrazin-2-yl)-3′-fluorobiphenyl-2-sulfonamide] as the compound, how does the Ki read?
The Ki was 1.3 nM.

For `Nc1cnc(-c2ccc(-c3ccccc3S(=O)(=O)N3c4ccccc4C[C@H]3CO)cc2F)cn1` [Example 135, (S)-(1-{[4′-(5-Aminopyrazin-2-yl)-3′-fluorobiphenyl-2-yl]sulfonyl}-2,3-dihydro-1H-indol-2-yl)methanol], which Ki is on record?
The Ki was 0.4 nM.

How did the Ki turn out when `Nc1cnc(-c2ccc(-c3ccccc3S(=O)(=O)N(CCO)C3CCCCC3)cc2F)cn1` [Example 136, 4′-(5-Aminopyrazin-2-yl)-N-cyclohexyl-3′-fluoro-N-(2-hydroxyethyl)biphenyl-2-sulfonamide] was run?
The Ki was 0.5 nM.

For `Nc1cnc(-c2ccc(-c3ccccc3S(=O)(=O)N(C3CCOCC3)C3CC3)cc2F)cn1` [Example 140, 4′-(5-Aminopyrazin-2-yl)-N-cyclopropyl-3′-fluoro-N-(tetrahydro-2H-pyran-4-yl)biphenyl-2-sulfonamide], which Ki is on record?
Its Ki is 1.4 nM.

Which Ki does the source give for `Nc1cnc(-c2ccc(-c3ccccc3S(=O)(=O)N3C[C@@H]4C(N)[C@@H]4C3)cc2F)cn1` (stereo partly drawn) [Example 143, (1R,5S)-3-((4′-(5-aminopyrazin-2-yl)-3′-fluoro-[1,1′-biphenyl]-2-yl)sulfonyl)-3-azabicyclo[3.1.0]hexan-6-amine] here?
Its Ki is 8.5 nM.

Which Ki does the source give for `CC(CO)(CO)NS(=O)(=O)c1ccccc1-c1ccc(-c2cnc(N)cn2)c(F)c1` [Example 147, 4′-(5-Aminopyrazin-2-yl)-3′-fluora-N-[2-hydroxy-1-(hydroxymethyl)-1-methylethyl]piphenyl-2-sulfonamide] here?
The Ki was 0.6 nM.

For `CC(C)[C@@H](CO)NS(=O)(=O)c1ccccc1-c1ccc(-c2cnc(N)cn2)c(F)c1` [Example 148, (S)-4′-(5-aminopyrazin-2-yl)-3′-fluoro-N-(1-hydroxy-3-methylbutan-2-yl)-[1,1′-biphenyl]-2-sulfonamide], which Ki is on record?
The Ki was 2.5 nM.

How did the Ki turn out when `CC(C)(C)[C@H](CO)NS(=O)(=O)c1ccccc1-c1ccc(-c2cnc(N)cn2)c(F)c1` [Example 150, (R)-4′-(5-aminopyrazin-2-yl)-3′-fluoro-N-(1-hydroxy-3,3-dimethylbutan-2-yl)-[1,1′-biphenyl]-2-sulfonamide] was run?
The Ki was 1.5 nM.

`CC(C)(C)OC(=O)NCCNS(=O)(=O)c1ccccc1-c1ccc(-c2cnc(N)cn2)c(F)c1` [Example 151] was tested. Which Ki did it give?
Its Ki is 1.3 nM.

`CC[C@@H](CO)NS(=O)(=O)c1ccccc1-c1ccc(-c2cnc(N)cn2)c(F)c1` [Example 153, (S)-4′-(5-aminopyrazin-2-yl)-3′-fluoro-N-(1-hydroxybutan-2-yl)-[1,1′-biphenyl]-2-suifonamide] was tested. Which Ki did it give?
The Ki was 2.5 nM.

For `Nc1cnc(-c2ccc(-c3ccccc3S(=O)(=O)N[C@@H]3c4ccccc4C[C@@H]3O)cc2F)cn1` [Example 161, 4′-(5-aminopyrazin-2-yl)-3′-fluoro-N-((1R,2S)-2-hydroxy-2,3-dihydro-1H-inden-1-yl)-[1,1′-biphenyl]-2-sulfonamide], which Ki is on record?
Its Ki is 0.4 nM.

For `Nc1cnc(-c2ccc(-c3ccccc3S(=O)(=O)Nc3ccc(C(F)(F)F)nc3)cc2F)cn1` [Example 163, 4′-(5-Aminopyrazin-2-yl)-3′-fluoro-N-[6-(trifluoromethyl)pyridin-3-yl]biphenyl-2-sulfonamide], which Ki is on record?
Its Ki is 0.5 nM.

`Nc1cnc(-c2ccc(-c3ccccc3S(=O)(=O)N3CCC(c4c[nH]cn4)CC3)cc2F)cn1` [Example 164, 5-(3-Fluoro-2′-{[4-(1H-imidazol-4′-yl)piperidin-1-yl]sulfonyl}biphenyl-4-yl)pyrazin-2-amine] was tested. Which Ki did it give?
The Ki was 0.8 nM.

`N#CCCNS(=O)(=O)c1ccccc1-c1ccc(-c2cnc(N)cn2)c(F)c1` [Example 169, 4′-(5-Aminopyrazin-2-yl)-N-(2-cyanoethyl)-3′-fluorobiphenyl-2-sulfanamide] was tested. Which Ki did it give?
The Ki was 2.9 nM.

How did the Ki turn out when `N#CCCN(C1CC1)S(=O)(=O)c1ccccc1-c1ccc(-c2cnc(N)cn2)c(F)c1` [Example 172, 4′-(5-Aminopyrazin-2-yl)-N-(2-cyanoethyl)-N-cyclopropyl-3′-fluorobiphenyl-2-suifonamide] was run?
Its Ki is 3.6 nM.

With `CC1(NS(=O)(=O)c2ccccc2-c2ccc(-c3cnc(N)cn3)c(F)c2)COC1` [Example 173, 4′-(5-Aminopyrazin-2-yl)-3′-fluoro-N-(3-methyloxetan-3-yl)biphenyl-2-sulfonamide] as the compound, how does the Ki read?
Its Ki is 0.8 nM.

`N#CCCN1CCN(S(=O)(=O)c2ccccc2-c2ccc(-c3cnc(N)cn3)c(F)c2)CC1` [Example 174, 3-(4-{[4′-(5-Aminopyrazin-2-yl)-3′-fluoroblphenyl-2-yl]sulfonyl}piperazin-1-yl)propanenitrile] was tested. Which Ki did it give?
Its Ki is 2.4 nM.

`COC[C@H](C)NS(=O)(=O)c1ccccc1-c1ccc(-c2cnc(N)cn2)c(F)c1` [Example 175, (S)-4′-(5-aminopyrazin-2-yl)-3′-fluoro-N-(1-methoxypropan-2-yl)-[1,1′-biphenyl]-2-sulfonamide] was tested. Which Ki did it give?
The Ki was 1.4 nM.

How did the Ki turn out when `Nc1cnc(-c2ccc(-c3ccccc3S(=O)(=O)N3CCN(c4cnccn4)CC3)cc2F)cn1` [Example 176, 5-{3-Fluoro-2′-[(4-pyrazin-2-ylpiperazin-1-yl)sulfonyl]biphenyl-4-yl}pyrazin-2-amine] was run?
Its Ki is 0.5 nM.

With `Nc1cnc(-c2ccc(-c3ccccc3S(=O)(=O)N3CCN(c4ncccn4)CC3)cc2F)cn1` [Example 177] as the compound, how does the Ki read?
Its Ki is 0.5 nM.

With `Nc1cnc(-c2ccc(-c3ccccc3N)cc2F)cn1` [Example 178, 5-(2′-Amino-3-fluorobiphenyl-4-yl)pyrazin-2-amine] as the compound, how does the Ki read?
Its Ki is ~1320 nM.

`Nc1cnc(-c2ccc(-c3ccccc3S(=O)(=O)NC3(CO)CCCC3)cc2F)cn1` [Example 179] was tested. Which Ki did it give?
The Ki was 0.4 nM.

Which Ki does the source give for `Nc1cnc(-c2ccc(-c3ccccc3NS(=O)(=O)N3CCCC3)cc2F)cn1` [Example 181, N-[4′-(5-Aminopyrazin-2-yl)-3′-fluorobiphenyl-2-yl]pyrroildine-1-sulfonamide] here?
Its Ki is 6.7 nM.

Which Ki does the source give for `Nc1cnc(-c2ccc(-c3ccccc3S(=O)(=O)N3CC[C@H](O)C3)cc2F)cn1` [Example 184, (3S)-1-{[4′-(5-Aminopyrazin-2-yl)-3′-fluorobiphenyl-2-yl]sulfonyl}pyrrolidin-3-ol] here?
Its Ki is 8.9 nM.

How did the Ki turn out when `Nc1cnc(-c2ccc(-c3ccccc3S(=O)(=O)N3CC[C@@H](O)C3)cc2F)cn1` [Example 185, (3R)-1-{[4′-(5-Aminopyrazin-2-yl)-3′-fluoroblphenyl-2-yl]sulfonyl}pyrrolidin-3-ol] was run?
Its Ki is 9.5 nM.

With `Nc1cnc(-c2ccc(-c3ccccc3SC(F)(F)F)cc2F)cn1` [Example 189, 5-{3-Fluoro-2′-[(trifluoromethyl)-sulfanyl]biphenyl-4-yl}pyrazin-2-amine] as the compound, how does the Ki read?
The Ki was 63.2 nM.

For `CC(C)(C)Sc1ccccc1-c1ccc(-c2cnc(N)cn2)c(F)c1` [Example 190, 5-[2′-(tert-Butylsulfanyl)-3-fluorobiphenyl-4-yl]pyrazin-2-amine], which Ki is on record?
The Ki was 66.2 nM.

`CCCS(=O)(=O)c1ccccc1-c1ccc(-c2cnc(N)cn2)c(F)c1` [Example 192, 5-[3-Fluoro-2′-(propylsulfonyl)biphenyl-4-yl]pyrazin-2-amine] was tested. Which Ki did it give?
The Ki was 48.3 nM.

With `CC(C)CS(=O)(=O)c1ccccc1-c1ccc(-c2cnc(N)cn2)c(F)c1` [Example 193, 5-{3-Fluoro-2′-[(2-methylpropyl)sulfonyyl]iphenyl-4-yl}pyrazin-2-amine] as the compound, how does the Ki read?
The Ki was 30.9 nM.

For `CC(C)(C)S(=O)(=O)c1ccccc1-c1ccc(-c2cnc(N)cn2)c(F)c1` [Example 194, 5-[2′-(tert-Butylsulfonyl)-3-fluorobiphenyl-4-yl]pyrazin-2-amine], which Ki is on record?
The Ki was 156 nM.

same assay, conditions: human FLAP wild type, a calculated value of 0.000 indicates Ki less than 1 nM

`C[C@@H]([C@@H](O)c1ccccc1)N(C)S(=O)(=O)c1ccccc1-c1ccc(-c2cnc(N)cn2)c(F)c1` [Example 118, 4′-(5-aminopyrazin-2-yl)-3′-fluoro-N-((1S,2S)-1-hydroxy-1-phenylpropan-2-yl)-N-methyl-[1,1′-biphenyl)-2-sulfonamide] was tested. Which Ki did it give?
Its Ki is < 1 nM.

With `Nc1cnc(-c2ccc(-c3ccccc3S(=O)(=O)N3c4ccccc4C[C@H]3CO)cc2F)cn1` [Example 135, (S)-(1-{[4′-(5-Aminopyrazin-2-yl)-3′-fluorobiphenyl-2-yl]sulfonyl}-2,3-dihydro-1H-indol-2-yl)methanol] as the compound, how does the Ki read?
Its Ki is < 1 nM.

How did the Ki turn out when `Nc1cnc(-c2ccc(-c3ccccc3S(=O)(=O)N[C@@H]3c4ccccc4C[C@@H]3O)cc2F)cn1` [Example 161, 4′-(5-aminopyrazin-2-yl)-3′-fluoro-N-((1R,2S)-2-hydroxy-2,3-dihydro-1H-inden-1-yl)-[1,1′-biphenyl]-2-sulfonamide] was run?
The Ki was < 1 nM.

With `Nc1cnc(-c2ccc(-c3ccccc3S(=O)(=O)N3CCN(c4cnccn4)CC3)cc2F)cn1` [Example 176, 5-{3-Fluoro-2′-[(4-pyrazin-2-ylpiperazin-1-yl)sulfonyl]biphenyl-4-yl}pyrazin-2-amine] as the compound, how does the Ki read?
The Ki was < 1 nM.

With `Nc1cnc(-c2ccc(-c3ccccc3S(=O)(=O)N3CCN(c4ncccn4)CC3)cc2F)cn1` [Example 177] as the compound, how does the Ki read?
Its Ki is < 1 nM.

For `Nc1cnc(-c2ccc(-c3ccccc3S(=O)(=O)NC3(CO)CCCC3)cc2F)cn1` [Example 179], which Ki is on record?
The Ki was < 1 nM.
